Measurements reported in patent US12448368B2, “Indole compounds as androgen receptor modulators” (NIDO BIOSCIENCES, INC., priority 2020, dated 2025).

Each compound was assayed against T1, androgen receptor (AR) (Homo sapiens, UniProt P10275, T878A) (assay: AR reporter assay in LNCaP cells expressing ARR2PB-FireflyLuc and CMV-RenillaLuc, antagonist mode (% remaining activity, IC50)). Settings: 48 h at 37° C., class symbols A-D, read-out: IC50.
T1 construct: LNCaP cells expressing ARR2PB-FireflyLuc and CMV-RenillaLuc; endogenous in cells; host or cells: LNCaP cells carrying ARR2PB-FireflyLuc and CMV-RenillaLuc reporters
T1 sequence (P10275 1-920 T878A): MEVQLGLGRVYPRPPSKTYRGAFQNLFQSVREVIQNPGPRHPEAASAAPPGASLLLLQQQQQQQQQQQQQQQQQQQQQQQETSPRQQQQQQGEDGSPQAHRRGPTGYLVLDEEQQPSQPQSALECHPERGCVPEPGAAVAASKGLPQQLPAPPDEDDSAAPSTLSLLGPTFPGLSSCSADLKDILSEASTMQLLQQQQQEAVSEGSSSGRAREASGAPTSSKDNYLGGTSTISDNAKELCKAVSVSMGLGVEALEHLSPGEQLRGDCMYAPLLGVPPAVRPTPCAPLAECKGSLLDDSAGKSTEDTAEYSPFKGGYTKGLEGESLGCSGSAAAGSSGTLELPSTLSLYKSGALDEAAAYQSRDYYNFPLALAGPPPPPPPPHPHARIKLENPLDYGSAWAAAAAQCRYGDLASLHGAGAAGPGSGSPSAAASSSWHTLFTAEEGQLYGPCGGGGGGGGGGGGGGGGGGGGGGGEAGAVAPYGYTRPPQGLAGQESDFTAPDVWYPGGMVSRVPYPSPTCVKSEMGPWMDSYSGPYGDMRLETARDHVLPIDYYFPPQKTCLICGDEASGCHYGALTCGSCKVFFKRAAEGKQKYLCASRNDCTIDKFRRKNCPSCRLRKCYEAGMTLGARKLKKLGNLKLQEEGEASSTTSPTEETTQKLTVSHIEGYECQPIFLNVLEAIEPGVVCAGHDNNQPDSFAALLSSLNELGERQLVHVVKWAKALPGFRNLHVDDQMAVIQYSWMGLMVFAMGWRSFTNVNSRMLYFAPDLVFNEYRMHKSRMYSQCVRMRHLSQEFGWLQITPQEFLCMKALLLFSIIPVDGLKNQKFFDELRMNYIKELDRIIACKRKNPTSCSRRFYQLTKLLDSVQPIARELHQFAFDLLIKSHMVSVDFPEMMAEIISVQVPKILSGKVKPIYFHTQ
Format: cell-based
How it was run: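 LNCaP cells carrying ARR2PB-firefly and CMV-Renilla luciferase reporters were treated 48 h at 37 °C with compound plus 0.5 nM DHT. Signals were normalised between 0.5 nM DHT alone and 10 uM enzalutamide + DHT to give % remaining activity, and IC50 was obtained by non-linear regression.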
With CN1C(=O)c2ccc(-c3c[nH]c4c(C(F)(F)F)cccc34)nc2C1(C)C [Compound 188] the IC50 was 0.1 to 1 µM. Cc1nc(-c2c[nH]c3c(C#N)cccc23)ccc1NCCO [Compound 190] was tested, and the IC50 was 0.1 to 1 µM. Work on Cc1nc(-c2c[nH]c3c(C#N)cccc23)ccc1NC(C)C(=O)N(C)C (stereo not shown) [Compound 191] yielded an IC50 of 1 to 10 µM. For N#Cc1cccc2c(-c3ccc(N)c(OC(F)F)n3)c[nH]c12 [Compound 192], the IC50 was 0.1 to 1 µM. In the case of Cc1nc(-c2c[nH]c3c(C#N)cccc23)cnc1OC1CCN(C)C1 (stereo not shown) [Compound 193], the IC50 is reported as 1 to 10 µM. CC(=O)N1CCC(Oc2ncc(-c3c[nH]c4c(C#N)cccc34)nc2C)C1 (stereo not shown) [Compound 194] showed an IC50 of 0.1 to 1 µM. Work on COC(C)CNc1ccc(-c2c[nH]c3c(C#N)cccc23)nc1C (stereo not shown) [Compound 195] yielded an IC50 of 0.1 to 1 µM. Cc1nc(-c2c[nH]c3c(C#N)cccc23)ccc1NCCN(C)C [Compound 196] showed an IC50 of 1 to 10 µM. Cc1nc(-c2c[nH]c3c(C#N)cccc23)ccc1NCC(=O)N(C)C [Compound 197] was tested, and the IC50 was > 10 µM. For Cc1nc(-c2c[nH]c3c(C(F)(F)F)cccc23)cnc1OC1CCNC1 (stereo not shown) [Compound 198], the IC50 was 0.1 to 1 µM. Cc1nc(-c2c[nH]c3c(C#N)cccc23)ccc1OC1CCNC1=O (stereo not shown) [Compound 199] was tested, and the IC50 was 1 to 10 µM. Fc1ccc(-c2c[nH]c3cnccc23)nc1 [Compound 200] was tested, and the IC50 was > 10 µM. Fc1ccc(-c2c[nH]c3cccnc23)nc1 [Compound 201] gave an IC50 of 1 to 10 µM. In the case of Fc1ccc(-c2c[nH]c3cc(F)cnc23)nc1 [Compound 202], the IC50 is reported as 0.1 to 1 µM. Work on Cc1ccc2c(-c3ccc(F)cc3)c[nH]c2n1 [Compound 203] yielded an IC50 of 1 to 10 µM. In the case of N#Cc1cc(F)cc2c(-c3ccc4ccc(F)cc4n3)c[nH]c12 [Compound 204], the IC50 is reported as 0.1 to 1 µM. CC1NC(=O)c2ccc(-c3c[nH]c4c(C#N)cccc34)nc21 (stereo not shown) [Compound 205] showed an IC50 of 0.1 to 1 µM. In the case of CC1(C)NC(=O)c2ccc(-c3c[nH]c4c(C#N)cccc34)nc21 [Compound 206], the IC50 is reported as 0.1 to 1 µM. Compound Cc1nc(-c2c[nH]c3c(Cl)cccc23)ccc1N [Compound 207] has an IC50 of 0.1 to 1 µM. For Cc1nc(-c2c[nH]c3c(S(C)(=O)=O)cccc23)ccc1N [Compound 208], the IC50 was > 10 µM. For Nc1ccc(-c2c[nH]c3cc(F)c(F)cc23)nc1Cl [Compound 209], the IC50 was 0.1 to 1 µM. In the case of Cc1nc(-c2c[nH]c3c(C#N)c(F)ccc23)ccc1N [Compound 210], the IC50 is reported as < 0.1 µM. In the case of COc1ccc2c(-c3ccc(N)c(C)n3)c[nH]c2c1C#N [Compound 211], the IC50 is reported as > 10 µM. For Cc1cncc(-c2c[nH]c3c(Cl)cccc23)n1 [Compound 212], the IC50 was < 0.1 µM. N#Cc1cccc2c(-c3cncc(N4CCC4)n3)c[nH]c12 [Compound 213] was tested, and the IC50 was 0.1 to 1 µM. For CCc1nc(-c2c[nH]c3c(C#N)cccc23)cnc1N [Compound 214], the IC50 was 0.1 to 1 µM. COc1cncc(-c2c[nH]c3c(C#N)cccc23)n1 [Compound 215] was tested, and the IC50 was < 0.1 µM. For CC1(C)NC(=O)c2ccc(-c3c[nH]c4cc(F)ccc34)nc21 [Compound 216], the IC50 was 0.1 to 1 µM. In the case of CN1C(=O)c2ccc(-c3c[nH]c4c(Cl)cccc34)nc2C1(C)C [Compound 217], the IC50 is reported as 0.1 to 1 µM. In the case of CC1(C)NC(=O)c2ccc(-c3c[nH]c4c(Cl)cccc34)nc21 [Compound 218], the IC50 is reported as 0.1 to 1 µM. Cc1nc(-c2c[nH]c3c(C#N)cccc23)ccc1NCC(C)(C)O [Compound 219] gave an IC50 of 0.1 to 1 µM. Work on Cc1nc(-c2c[nH]c3c(C#N)cccc23)ccc1NCCN [Compound 220] yielded an IC50 of 0.1 to 1 µM. With COCC(C)Nc1ccc(-c2c[nH]c3c(C#N)cccc23)nc1C (stereo not shown) [Compound 221] the IC50 was 0.1 to 1 µM. With N#Cc1cccc2c(-c3cnc(OC4CCNC4)cn3)c[nH]c12 (stereo not shown) [Compound 222] the IC50 was 1 to 10 µM. Compound Cc1nc(-c2c[nH]c3c(C#N)cccc23)cnc1OC1CC2CCC1N2 (stereo not shown) [Compound 223] has an IC50 of 1 to 10 µM. For Cc1nc(-c2c[nH]c3c(C#N)cccc23)cnc1OC1C2CNCC21 (stereo not shown) [Compound 224], the IC50 was 1 to 10 µM. With Cc1nc(OC2C3CNCC32)cnc1-c1c[nH]c2c(C#N)cccc12 (stereo not shown) [Compound 225] the IC50 was > 10 µM. N#Cc1cccc2c(-c3cnc(NC4CCNC4)c(OC(F)F)n3)c[nH]c12 (stereo not shown) [Compound 226] was tested, and the IC50 was 0.1 to 1 µM. Cc1nc(-c2c[nH]c3c(C#N)cccc23)cnc1N1CCC(N)C1 (stereo not shown) [Compound 227] was tested, and the IC50 was > 10 µM. In the case of COCC(COC)Nc1ncc(-c2c[nH]c3c(C#N)cccc23)nc1C [Compound 228], the IC50 is reported as > 10 µM. Compound N#Cc1cccc2c(-c3ccc(OC4CCNC4)c(F)c3)c[nH]c12 (stereo not shown) [Compound 229] has an IC50 of 0.1 to 1 µM. In the case of Cc1nc(-c2c[nH]c3c(C#N)cccc23)ccc1OC1CCNC1 (stereo not shown) [Compound 230], the IC50 is reported as 0.1 to 1 µM. Cc1nc(-c2c[nH]c3c(C#N)cccc23)cnc1NC1CCNCC1 [Compound 231] was tested, and the IC50 was > 10 µM. Cc1nc(-c2c[nH]c3c(C#N)cccc23)cnc1NC1CCCNC1 (stereo not shown) [Compound 232] was tested, and the IC50 was > 10 µM. In the case of Cc1nc(-c2c[nH]c3c(C#N)cccc23)cnc1OC1CCNCC1 [Compound 233], the IC50 is reported as > 10 µM. With Cc1nc(-c2c[nH]c3c(C#N)cccc23)cnc1OC1CCCNC1 (stereo not shown) [Compound 234] the IC50 was > 10 µM. In the case of CC1(C)c2nc(-c3c[nH]c4c(C#N)cccc34)ccc2C(=O)N1CCCO [Compound 235], the IC50 is reported as > 10 µM. For CC1(C)c2nc(-c3c[nH]c4c(C#N)cccc34)ccc2C(=O)N1CCCCO [Compound 236], the IC50 was > 10 µM. N#Cc1cccc2c(-c3ccc(OC4CCNC4)c(Cl)n3)c[nH]c12 (stereo not shown) [Compound 237] was tested, and the IC50 was 0.1 to 1 µM. For Cc1nc(-c2c[nH]c3c(Cl)cccc23)ccc1OC1CCNC1 (stereo not shown) [Compound 238], the IC50 was 1 to 10 µM. With Cc1nc(-c2c[nH]c3c(C#N)cccc23)cnc1OC1CNC1 [Compound 239] the IC50 was 1 to 10 µM. In the case of CC(=O)N1CC(Oc2ncc(-c3c[nH]c4c(C#N)cccc34)nc2C)C1 [Compound 240], the IC50 is reported as 0.1 to 1 µM. N#Cc1cccc2c(-c3ccc(OC4CCNC4)c(Cl)c3)c[nH]c12 (stereo not shown) [Compound 241] showed an IC50 of 1 to 10 µM. For N#Cc1cccc2c(-c3cnc(OC4CCNC4)c(OC(F)F)n3)c[nH]c12 (stereo not shown) [Compound 244], the IC50 was > 10 µM. Work on N#Cc1cccc2c(-c3cnc(OC4CCNC4)c(C(F)(F)F)n3)c[nH]c12 (stereo not shown) [Compound 245] yielded an IC50 of 1 to 10 µM. Cc1nc(-c2c[nH]c3c(C#N)cccc23)cnc1OC[C@H]1[C@@H]2CNC[C@@H]21 [Compound 246] was tested, and the IC50 was 0.1 to 1 µM. Cc1nc(-c2c[nH]c3c(C#N)cccc23)cnc1OC[C@@H]1[C@@H]2CNC[C@@H]21 [Compound 247] was tested, and the IC50 was 1 to 10 µM. For Cc1nc(-c2coc3c(Cl)cccc23)cnc1N [Compound 248], the IC50 was 1 to 10 µM. In the case of CCc1nc(-c2c[nH]c3c(C#N)cccc23)cnc1OC1CCNC1 (stereo not shown) [Compound 249], the IC50 is reported as > 10 µM. With COc1nc(-c2c[nH]c3c(C#N)cccc23)cnc1NC1CCNC1 (stereo not shown) [Compound 250] the IC50 was 0.1 to 1 µM. CCOc1nc(-c2c[nH]c3c(C#N)cccc23)cnc1NC1CCNC1 (stereo not shown) [Compound 251] was tested, and the IC50 was 1 to 10 µM. For N#Cc1cccc2c(-c3ccc(OC4CCNC4)c(C(F)(F)F)n3)c[nH]c12 (stereo not shown) [Compound 252], the IC50 was 1 to 10 µM. With CCc1nc(-c2c[nH]c3c(Cl)cccc23)cnc1OC1CCNC1 (stereo not shown) [Compound 253] the IC50 was > 10 µM. Compound Fc1cc(-c2c[nH]c3c(Cl)cccc23)ccc1OC1CCNC1 (stereo not shown) [Compound 254] has an IC50 of 1 to 10 µM. Work on Cc1nc(-c2n[nH]c3cc(F)c(F)cc23)ccc1OC1CCNC1 (stereo not shown) [Compound 255] yielded an IC50 of 1 to 10 µM. Cc1nc(-c2n[nH]c3c(Cl)cccc23)ccc1OC1CCNC1 (stereo not shown) [Compound 256] showed an IC50 of 1 to 10 µM. Work on CC(=O)N1CCC(Oc2ncc(-c3c[nH]c4c(Cl)cccc34)nc2C)C1 (stereo not shown) [Compound 257] yielded an IC50 of 0.1 to 1 µM. With CC(=O)N1CCC(Oc2ncc(-c3c[nH]c4c(C(F)(F)F)cccc34)nc2C)C1 (stereo not shown) [Compound 258] the IC50 was 0.1 to 1 µM. For CC(=O)N1CCC(Oc2ncc(-c3c[nH]c4c(C#N)cccc34)nc2Cl)C1 (stereo not shown) [Compound 259], the IC50 was 0.1 to 1 µM. CC(=O)N1CCC(Oc2ccc(-c3c[nH]c4c(C#N)cccc34)nc2C)C1 (stereo not shown) [Compound 260] gave an IC50 of 0.1 to 1 µM. With CC(=O)N1CCC(Oc2ccc(-c3c[nH]c4c(C#N)cccc34)nc2Cl)C1 (stereo not shown) [Compound 261] the IC50 was 0.1 to 1 µM. CC(=O)N1CCC(Oc2ccc(-c3c[nH]c4c(C#N)cccc34)nc2C(F)(F)F)C1 (stereo not shown) [Compound 262] gave an IC50 of 0.1 to 1 µM. CC(=O)N(C)CCOc1ncc(-c2c[nH]c3c(Cl)cccc23)nc1C [Compound 263] was tested, and the IC50 was 0.1 to 1 µM. Compound CC1(C)NC(=O)c2ccc(-c3c[nH]c4c(C#N)cccc34)cc21 [Compound 264] has an IC50 of 0.1 to 1 µM. In the case of COc1nc(-c2c[nH]c3c(C#N)cccc23)cnc1NC1CCN(C(C)=O)C1 (stereo not shown) [Compound 265], the IC50 is reported as < 0.1 µM. For CC1(CO)NC(=O)c2ccc(-c3c[nH]c4c(C#N)cccc34)nc21 (stereo not shown) [Compound 266], the IC50 was > 10 µM.
